The values below come from US5338868A, “Process for preparing alpha-amino-phenylacetic acid-trifluoromethane sulfonic acid mixed anhydrides” (Chinoin Gyogyszer- es Vegyeszeti Termekek Gyara Rt., priority 1989, dated 1994).

This data set is described as follows: Quality of the Dane salt during storage for 30 days. The data set is classed as physicochemical.

Molecules are shown by their SMILES.

Consider `CCOC(=O)C=C(C)N[C@@H](C(=O)[O-])c1ccccc1.[Na+]` [Example 15, sodium-D-N-(2-ethoxycarbonyl-1-methyl-vinyl)-α-amino-phenyl-acetate], for which, where the note is “stored at room temperature”, the quality after storage result is recorded as “remains unchanged”.
On to `CCOC(=O)C=C(C)N[C@@H](C(=O)O)c1ccc(O)cc1` [Example 9], for which, under “room temperature, air”, the quality during storage result is given as “does not change”.
